The target in data set [1] is T1, human sEH (Homo sapiens, UniProt P34913).
T1 sequence (P34913 1-555): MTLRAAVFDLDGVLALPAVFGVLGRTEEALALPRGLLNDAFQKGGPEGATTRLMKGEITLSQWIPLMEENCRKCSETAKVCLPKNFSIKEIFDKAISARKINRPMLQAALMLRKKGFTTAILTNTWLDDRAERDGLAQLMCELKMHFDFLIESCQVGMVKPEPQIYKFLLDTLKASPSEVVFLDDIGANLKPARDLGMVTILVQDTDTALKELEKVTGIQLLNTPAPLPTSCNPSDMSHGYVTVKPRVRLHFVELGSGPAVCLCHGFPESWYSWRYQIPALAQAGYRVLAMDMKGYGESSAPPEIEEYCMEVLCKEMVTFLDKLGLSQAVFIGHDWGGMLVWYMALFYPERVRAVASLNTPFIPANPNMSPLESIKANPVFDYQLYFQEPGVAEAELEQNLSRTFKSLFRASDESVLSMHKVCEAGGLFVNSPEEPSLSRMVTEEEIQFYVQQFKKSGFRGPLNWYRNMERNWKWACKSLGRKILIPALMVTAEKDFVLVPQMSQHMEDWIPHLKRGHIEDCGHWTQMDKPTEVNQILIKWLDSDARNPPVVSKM
The data set can be described thus: Fluorescent. It is filed as biochemical. To be noted: for reduced inhibition compared to N,N,O-trimethylated oxyoxalamide derivatives: Conclusions, vs trimethylated derivatives (24, 26, 31); for improvement in inhibition in comparison with compound 27: ratio of IC50 vs compound 27; for drop in inhibition compared to compound 6: ratio of IC50 vs compound 6.

A short description of data set [2]: Water solubility by light scattering. The note with it: vs AUDA. It is filed as physicochemical.

SMILES strings stand for the structures.

On to `CC(C)(C)ONC(=O)C(=O)Nc1ccc(CNC(=O)C23CC4CC(CC(C4)C2)C3)cc1` [Compound 19, N-(4-(N^2-t-Butyloxyoxalamido)benzyl)adamantanecarboxamide], for which the “lowered inhibition compared to compound 18” value in data set [1] (ratio of IC50 vs compound 18) is listed as 1.5 fold.

Consider `CONC(=O)C(=O)Nc1ccc(CNC(=O)NC23CC4CC(CC(C4)C2)C3)cc1` [Compound 28, 1-(4-(N^2-Methyloxyoxalamido)benzyl)-3-adamantylurea], for which, in data set [1], the “reduced inhibition compared to N,N,O-trimethylated oxyoxalamide derivatives” value is recorded as at most 10 fold and the “improvement in inhibition in comparison with compound 27” value (from here on “improvement in inhibition in comparison”) amounted to 2.5 fold.

For the compound `O=C(NCCCc1ccccc1)C(=O)NOCc1ccccc1` [Compound 3, N^1-(Benzyloxy)-N^2-(3-phenylpropyl)oxalamide], the “inhibition of human sEH, result in words” value in data set [1] was “not effective for producing inhibition activity”.

In the case of `O=C(NOCCCc1ccccc1)C(=O)NC1C2CC3CC(C2)CC1C3` (stereo not drawn) [Compound 12, N^1-(Adamant-2-yl)-N^2-(3-phenylpropyloxy)oxalamide], the “drop in inhibition compared to compound 6” value in data set [1] is reported as “approximately 10 fold”. In addition, the “better inhibition than compound 11” value in data set [1] (ratio of IC50 vs compound 11) is “approximately 8 fold”.

Take `CONC(=O)C(=O)Nc1ccc(CNC(=O)C23CC4CC(CC(C4)C2)C3)cc1` [Compound 18, N-(4-(N^2-Methyloxyoxalamido)benzyl)adamantanecarboxamide]: in data set [1] (ratio of IC50 vs compound 17), the “enhancement in inhibition compared to compound 17” value is given as at least 3 fold.

`O=C(NOCc1ccccc1)C(=O)NC12CC3CC(CC(C3)C1)C2` [Compound 4, N^1-(Adamant-1-yl)-N^2-(benzyloxy)oxalamide]: the “inhibition of human sEH, result in words” value in data set [1] was “not effective for producing inhibition activity”.

Consider `CON(C)C(=O)C(=O)N(C)c1ccc(CNC(=O)NC23CC4CC(CC(C4)C2)C3)cc1` [Compound 31, 1-(4-(N^1-Methyl-N^2-methyl-N^2-(methyloxy)oxalamido)-benzyl)-3-adamantylurea], for which the “higher solubility in water than AUDA” value in data set [2] came to 10 fold. The “improvement in inhibition in comparison” value in data set [1] is reported as 13 fold.

Consider `O=C(NOc1ccccc1)C(=O)NC1C2CC3CC(C2)CC1C3` (stereo not drawn) [Compound 7, N^1-(Adamant-2-yl)-N^2-(phenyloxy)oxalamide], for which the “inhibition of human sEH, result in words” value in data set [1] is on record as “no inhibition”.

On to `O=C(CNC1C2CC3CC(C2)CC1C3)NOCc1ccccc1` (stereo not drawn) [Compound 16, N-(Benzyloxy)-2-(adamant-2-ylamino)acetamide], for which, in data set [1], the “inhibition of human sEH, result in words” value is “no inhibition”.

Take `CON(C)C(=O)C(=O)N(C)c1ccc(CNC(=O)C23CC4CC(CC(C4)C2)C3)cc1` [Compound 21, N-(4-(N^1-Methyl-N^2-methyl-N^2-(methyloxy)oxalamido)-benzyl)adamantanecarboxamide]: the “improved potency compared to O-methyl derivative (18)” value in data set [1] (ratio of IC50 vs compound 18) was determined as 1.5 fold.

Take `CON(C)C(=O)C(=O)Nc1ccc(CNC(=O)C23CC4CC(CC(C4)C2)C3)cc1` [Compound 20, N-(4-(N^2-Methyl-N^2-(methyloxy)oxalamido)benzyl)adamantanecarboxamide]: the “improved potency compared to O-methyl derivative (18)” value in data set [1] (ratio of IC50 vs compound 18) came to 1.5 fold.

For `O=C(NOC1CCCCO1)C(=O)Nc1ccc(CNC(=O)C23CC4CC(CC(C4)C2)C3)cc1` (stereo not drawn) [Compound 22, N-(4-(N^2-(Tetrahydro-2H-pyran-2-yloxy)oxalamido)benzyl) adamantanecarboxamide], the “inhibition of human sEH, result in words” value in data set [1] is reported as “complete loss in inhibition”.

Consider `CN(OCc1ccccc1)C(=O)C(=O)NC1C2CC3CC(C2)CC1C3` (stereo not drawn) [Compound 13, N^1-(Adamant-2-yl)-N^2-(benzyloxy)-N^2-methyloxalamide], for which the “drop in inhibition compared to compound 6” value in data set [1] is “approximately 60 fold”.

Regarding `O=C(NCC12CC3CC(CC(C3)C1)C2)C(=O)NOCc1ccccc1` [Compound 5, N^1-(Adamant-1-ylmethyl)-N^2-(benzyloxy)oxalamide], the “inhibition of human sEH, result in words” value in data set [1] is “moderate inhibition”.

As for `CON(C)C(=O)C(=O)Nc1ccc(CNC(=O)NC23CC4CC(CC(C4)C2)C3)cc1` [Compound 30, 1-(4-(N^2-Methyl-N^2-(methyloxy)oxalamido)benzyl)-3-adamantylurea], in data set [1], the “reduced inhibition compared to N,N,O-trimethylated oxyoxalamide derivatives” value is listed as at most 10 fold and the “improvement in inhibition in comparison” value is 3 fold.

`O=C(NOCc1ccccc1)C(=O)NC1C2CC3CC(C2)CC1C3` (stereo not drawn) [Compound 6, N^1-(Adamant-2-yl)-N^2-(benzyloxy)oxalamide]: the “inhibition potency lower compared to AUDA” value in data set [1] (ratio of IC50 vs AUDA) is recorded as “approximately 15 fold”. For the same compound, in data set [1] (ratio of IC50 vs compound 5), the “improvement in inhibition potency compared to compound 5” value amounted to 16 fold.

Values taken from article PMC4172381 (Bioorganic & medicinal chemistry, 2014).
